Source: patent US20110003994A1, “CYCLOALKANE DERIVATIVE” (Dainippon Sumitomo Pharma Co., Ltd., priority 2009, published 2011)

Assays:
[1] = molecular target: T1, human D2 receptor (Homo sapiens, UniProt P14416); experiment: Binding assay for D2 receptor using [3H] spiperone; conditions: test compound 100 nM, cell membrane expressing human D2 receptor, read-out: Binding inhibitory rate (%) for D2 receptor (100 nM)
T1 construct: expressed in transfected cells
Description: In general, there is clinically some correlation between antipsychotic action and antagonistic action for dopamine D2 receptor. The experimental method used herein is a binding assay for D2 receptor which is one of the tests evaluating D2 receptor action in vitro, According to the known method (e.g. Japan, J. Pharmacol., 53, 321-329 (1990)), the above-captioned experiment was carried out using [3H] spiperone, i.e., the binding amount of [3H] spiperone to the preparation cell membrane expressing human D2 receptor was measured, and then the binding inhibitory rate by the test compound (100 nM) was measured/calculated.

[2] = Cataleptic action (pole test); conditions: in vivo, ip; male rat, intraperitoneal, one hour after administration; dose inducing catalepsy in 50% of the rats
Description: The cataleptic action which is a typical central nervous system side-effect of antipsychotic agents in the clinical study was evaluated as follows. The test substance was intraperitoneally administered to a male rat. One hour later, the rat was made to hold on a pole three times which is horizontally set at a height of 9 cm. When the rat retained the unnatural stretched pose for 30 seconds even one time out of three times, the rat was evaluated as cataleptic positive. The dose for inducing 50% the rats to the catalepsy: ED50 value was calculated.

[3] = system: methamphetamine-induced movement of the rat; experiment: Anti-methamphetamine test (movement measured with Supermex); type: in vivo; conditions: male rat, intraperitoneal, 30 min before methamphetamine 1 mg/kg i.p.; movement measured for 90 minutes; dose for 50% inhibition; read-out: Antidopaminergic action ED50
Description: The anti-methamphetamine test which is a typical in vivo test for evaluating antipsychotic action in the clinical study was carried out as follows. The test substance was intraperitoneally administered to a male rat, and 30 minutes later methamphetamine (1 mg/kg) was intraperitoneally administered to the male rat. Ten minutes after completing the administrations, the movement of the rat was measured with Supermex for 90 minutes, and the dose for 50% inhibition: ED50 value was calculated.

T1 sequence (P14416 whole entry): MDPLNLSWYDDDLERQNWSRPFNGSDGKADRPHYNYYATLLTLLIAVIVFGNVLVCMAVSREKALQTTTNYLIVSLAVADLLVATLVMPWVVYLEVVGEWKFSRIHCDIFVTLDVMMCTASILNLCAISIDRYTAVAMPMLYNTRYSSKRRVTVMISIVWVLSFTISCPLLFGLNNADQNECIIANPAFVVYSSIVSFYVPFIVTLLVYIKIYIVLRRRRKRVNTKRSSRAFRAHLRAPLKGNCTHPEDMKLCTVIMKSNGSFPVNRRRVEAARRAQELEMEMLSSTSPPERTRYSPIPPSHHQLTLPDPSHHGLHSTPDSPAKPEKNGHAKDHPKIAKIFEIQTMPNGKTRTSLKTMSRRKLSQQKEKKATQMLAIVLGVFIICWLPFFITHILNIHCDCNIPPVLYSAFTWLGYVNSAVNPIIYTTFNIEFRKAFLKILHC

`O=C(/C=C/c1ccc2c(c1)OCO2)NC[C@H]1CCC[C@@H]1CN1CCN(c2nsc3ccccc23)CC1` [Example 104] showed an inhibition at 0.1 µM [1] of 92%.
`C=C1[C@H](CNC(=O)/C=C/c2ccccc2C)[C@H]1CN1CCC(c2noc3cc(F)ccc23)CC1` [Example 185] showed an inhibition at 0.1 µM [1] of 92%.
With `COc1cccc(/C=C/C(=O)NC[C@@H]2CCCC[C@@H]2CN2CCN(c3nsc4ccccc34)CC2)c1OC` [Example 14] the inhibition at 0.1 µM [1] was 92%.
`O=C(NC[C@@H]1CCCC[C@H]1CN1CCN(c2nsc3cc(F)ccc23)CC1)c1ccc2c(c1)OCO2` [Example 82] showed an inhibition at 0.1 µM [1] of 94%.
For `O=C(NC[C@H]1CCC[C@@H]1CN1CCN(c2nsc3ccccc23)CC1)c1cccc(Oc2ccccc2)c1` [Example 87], the ED50 at 1 h [2] was greater than 135 mg/kg, the ED50 [3] was 4.5 mg/kg and the inhibition at 0.1 µM [1] was 93%.
`O=C(NC[C@H]1CCC[C@@H]1CN1CCN(c2nsc3ccccc23)CC1)c1ccc2c(c1)OCO2` [Example 102] showed an inhibition at 0.1 µM [1] of 95%.
For `O=C(/C=C/c1ccccc1[N+](=O)[O-])NC[C@@H]1CCCC[C@@H]1CN1CCN(c2nsc3ccccc23)CC1` [Example 16], the inhibition at 0.1 µM [1] was 94%.
`O=C(/C=C/c1ccc2c(c1)OCO2)NC[C@@H]1CCCC[C@H]1CN1CCN(c2nsc3cc(F)ccc23)CC1` [Example 84] gave an inhibition at 0.1 µM [1] of 95%.
With `O=C(/C=C/c1ccc2c(c1)OCO2)NC[C@H]1CCCC[C@H]1CN1CCN(c2nsc3ccccc23)CC1` [Example 69] the inhibition at 0.1 µM [1] was 91%.
In the case of `C=C1[C@H](CNS(=O)(=O)c2cccc(-c3ccccc3)c2)[C@H]1CN1CCC(c2noc3cc(F)ccc23)CC1` [Example 190], the inhibition at 0.1 µM [1] is reported as 92%.
Molecule `Cc1cccc(/C=C/C(=O)NC[C@@H]2CCCC[C@@H]2CN2CCN(c3nsc4ccccc34)CC2)c1` [Example 13] has an inhibition at 0.1 µM [1] of 92%.
In the case of `O=C(/C=C/c1cccc(Cl)c1)NC[C@@H]1CCCC[C@H]1CN1CCC(c2noc3cc(F)ccc23)CC1` [Example 200], the ED50 at 1 h [2] is reported as greater than 7.2 mg/kg, the ED50 [3] is reported as 0.24 mg/kg and the inhibition at 0.1 µM [1] is reported as 92%.
`O=C(NC[C@@H]1CCCC[C@H]1CN1CCC(c2noc3cc(F)ccc23)CC1)c1ccc2c(c1)OCO2` [Example 221] showed an inhibition at 0.1 µM [1] of 93%.
Molecule `O=C(/C=C/c1ccc2c(c1)OCO2)NC[C@@H]1CCCC[C@H]1CN1CCC(c2noc3cc(F)ccc23)CC1` [Example 222] has an inhibition at 0.1 µM [1] of 93%.
For `O=C(Cc1ccc(Cl)cc1)NC[C@H]1CCCC[C@@H]1CN1CCN(c2nsc3ccccc23)CC1` [Example 37], the inhibition at 0.1 µM [1] was 90%.
`Cc1cccc(/C=C/C(=O)NC[C@H]2C[C@@H]2CN2CCN(c3nsc4ccccc34)CC2)c1` [Example 137] gave an inhibition at 0.1 µM [1] of 95%.
With `O=S(=O)(NC[C@@H]1CCCC[C@H]1CN1CCC(c2n[nH]c3cc(F)ccc23)CC1)c1cccc(-c2ccccc2)c1` [Example 240] the inhibition at 0.1 µM [1] was 85%.
`O=C1C2C3CCC(C3)C2C(=O)N1C[C@@H]1CCCC[C@H]1CN1CCN(c2nsc3cc(F)ccc23)CC1` (stereo partly drawn) [Example 85] gave an inhibition at 0.1 µM [1] of 91%.
With `Cc1ccccc1/C=C/C(=O)NC[C@H]1CCCC[C@H]1CN1CCN(c2nsc3ccccc23)CC1` [Example 60] the inhibition at 0.1 µM [1] was 91%.
`COc1ccccc1/C=C/C(=O)NC[C@H]1C[C@@H]1CN1CCN(c2nsc3ccccc23)CC1` [Example 139] showed an inhibition at 0.1 µM [1] of 91%.
With `O=C(/C=C/c1ccccc1[N+](=O)[O-])NC[C@H]1CCCC[C@H]1CN1CCN(c2nsc3ccccc23)CC1` [Example 64] the inhibition at 0.1 µM [1] was 92%.
For `O=C(NC[C@H]1CCCC[C@@H]1CN1CCN(c2nsc3ccccc23)CC1)c1ccc2c(c1)OCO2` [Example 36], the inhibition at 0.1 µM [1] was 92%.
`C=C1[C@H](CNC(=O)c2ccc3c(c2)OCO3)[C@H]1CN1CCC(c2noc3cc(F)ccc23)CC1` [Example 192] showed an inhibition at 0.1 µM [1] of 90%.
`O=C(/C=C/c1ccc2c(c1)OCO2)NC[C@@H]1CCCC[C@@H]1CN1CCN(c2nsc3ccccc23)CC1` [Example 21] gave an inhibition at 0.1 µM [1] of 91%.
For `COc1ccccc1/C=C/C(=O)NC[C@H]1CCCC[C@@H]1CN1CCN(c2nsc3ccccc23)CC1` [Example 32], the inhibition at 0.1 µM [1] was 91%.
Molecule `O=C(/C=C/c1ccccc1F)NC[C@H]1CCCC[C@@H]1CN1CCN(c2nsc3ccccc23)CC1` [Example 44] has an inhibition at 0.1 µM [1] of 91%.
In the case of `O=C(/C=C/c1ccccc1[N+](=O)[O-])NC[C@H]1CCCC[C@@H]1CN1CCN(c2nsc3ccccc23)CC1` [Example 33], the inhibition at 0.1 µM [1] is reported as 90%.
For `O=C1C2C3CCC(C3)C2C(=O)N1C[C@@H]1CCCC[C@H]1CN1CCC(c2noc3ccc(F)cc23)CC1` (stereo partly drawn) [Example 225], the inhibition at 0.1 µM [1] was 94%.
For `O=C(NC[C@@H]1CCCC[C@H]1CN1CCC(c2n[nH]c3cc(F)ccc23)CC1)c1ccc2c(c1)OCO2` [Example 242], the inhibition at 0.1 µM [1] was 95%.
In the case of `O=C1C2C3CCC(C3)C2C(=O)N1C[C@@H]1CCCC[C@H]1CN1CCC(c2noc3ccccc23)CC1` (stereo partly drawn) [Example 223], the inhibition at 0.1 µM [1] is reported as 94%.
`O=C(NC[C@H]1CCCC[C@H]1CN1CCN(c2nsc3ccccc23)CC1)c1ccc2c(c1)OCO2` [Example 67] gave an inhibition at 0.1 µM [1] of 90%.
`O=C(Cc1ccc(Cl)cc1)NC[C@@H]1CCCC[C@H]1CN1CCC(c2n[nH]c3cc(F)ccc23)CC1` [Example 243] showed an inhibition at 0.1 µM [1] of 94%.
`COc1cccc(/C=C/C(=O)NC[C@H]2CCCC[C@H]2CN2CCN(c3nsc4ccccc34)CC2)c1OC` [Example 62] showed an inhibition at 0.1 µM [1] of 91%.
With `COc1ccccc1/C=C/C(=O)NC[C@@H]1CCCC[C@@H]1CN1CCN(c2nsc3ccccc23)CC1` [Example 15] the inhibition at 0.1 µM [1] was 93%.
`COc1ccc(OC)c(S(=O)(=O)NC[C@@H]2CCCC[C@H]2CN2CCC(c3n[nH]c4cc(F)ccc34)CC2)c1` [Example 241] showed an inhibition at 0.1 µM [1] of 95%.
Work on `O=S(=O)(NC[C@H]1CCC[C@@H]1CN1CCN(c2nsc3ccccc23)CC1)c1cccc(-c2ccccc2)c1` [Example 100] yielded an inhibition at 0.1 µM [1] of 91%.
`COc1ccc(OC)c(S(=O)(=O)NC[C@H]2CCC[C@@H]2CN2CCN(c3nsc4ccccc34)CC2)c1` [Example 101] gave an inhibition at 0.1 µM [1] of 94%.
Molecule `O=C(/C=C/c1ccccc1[N+](=O)[O-])NC[C@@H]1CCCC[C@H]1CN1CCC(c2n[nH]c3cc(F)ccc23)CC1` [Example 239] has an inhibition at 0.1 µM [1] of 95%.
